21 compounds from patent US6660741B2, “Asymmetric synthesis of (S,S,R)-(-)-actinonin and its analogs and uses therefor” (Sloan-Kettering Institute for Cancer Research, priority 2001, dated 2003) can be followed below.

Holding throughout (type): cell-based
For experiment [1], the system named is HL60 (acute myeloid leukemia, CD13 positive) cells. Nature of the experiment: Inhibition of tritiated thymidine incorporation, 5 day, HL60. Conditions: HL60, 5 days. On the procedure:
(§1) Actinonin was purchased from Sigma (St. Louis, Mo.). Biotinylated-Actinonin and all analogs were synthesized. Actinonin stock solution was 5 mg/ml in 10% ethanol. Biotinylated-actinonin and all other analogs were diluted in 10% DMSO to give stock solutions in the range of 1-20 mg/ml.
(§2) Daudi (B lineage Burkitt's lymphoma, CD13 negative) and HL60 (acute myeloid leukemia, CD13 positive) cells were maintained in culture using RPMI 1640 supplemented with 10% heat-inactivated FBS (Omega Scientific, Inc., Tarzana, Calif.) and 1% L-glutamine (Gibco/Invitrogen, Carlsbad, Calif.) at 37° C. in a humidified atmosphere of 5% CO2. Cell viability was higher than 90%, and cells were free of mycoplasma contamination.
(§3) An aliquot of 200 ul of cells (10,000 cells/well) was washed and incubated at 37° C. in 96-well plates in the presence or absence of actinonin/analogs. Serial dilutions were made in complete media. After 5 days of incubation, 50 ul of 10 uCi/mL tritiated thymidine (PerkinElmer, Boston, Mass.) was added to each well and allowed to incorporate for 5 hours. Plates were frozen at −80° C. overnight and cells were harvested onto filtermats (Wallac, Finland) using a semi-automatic harvester (Skatron, Sterling, Va.). Filtermats were counted in a 1205 Betaplate™ liquid scintillation counter (Wallac, Finland). The reference numbers refer to those analogs disclosed in Example 6. Compounds 35, 42, 48, 52, 53, and 56 are effective at inhibiting cell growth.
A general note: Incorporation of labelled thymidine or its analogues reports DNA synthesis.

The next experiment has as its system Daudi and HL60 cells. In words: Thymidine incorporation, summary statement on cell growth (Daudi and HL60). The conditions noted are these: summary of Tables 4 and 5. On the procedure:
as §1, §2, §3

The test system of experiment [2] is Daudi (B lineage Burkitt's lymphoma, CD13 negative) cells. Nature of the experiment: Inhibition of tritiated thymidine incorporation, 5 day, Daudi. Conditions: 5 days. The procedure: as §1, §2, §3
Setting [3] is: Homo sapiens, HL-60, 120 h, read-out: HL60 IC50 (uM), 5 day thymidine incorporation.
Where [4] appears, read: Homo sapiens, HL-60, 120 h, read-out: HL60 IC50 (ug/mL), 5 day thymidine incorporation.
Setting [5] is: Homo sapiens, 120 h, read-out: Daudi IC50 (uM), 5 day thymidine incorporation.
[6] abbreviates: Homo sapiens, 120 h, read-out: Daudi IC50 (ug/mL), 5 day thymidine incorporation.

Read-outs that look alike come from different tables or passages of the source.

As for `CCCCC[C@H](CC(=O)N1CCN(C)CC1)C(=O)N[C@@H](Cc1ccccc1)C(=O)N1CCC[C@H]1CO` [Compound 62, 2-[2-(4-methyl-piperazin-1-yl)-2-oxo-ethyl]-heptanoic acid [1-benzyl-2-(2-hydroxymethyl-pyrrolidin-1-yl)-2-oxo-ethyl]-amide], the values for the IC50 in experiment [1] (setting [3]) and in experiment [1] (setting [4]) were > 200 µM and > 100 µg/mL, respectively.
For `CCCCC[C@H](CC(=O)N(C)OC)C(=O)N[C@@H](Cc1ccccc1)C(=O)N1CCC[C@H]1CO` [Compound 65], the IC50 in experiment [1] (setting [3]) was > 217 µM; in experiment [1] (setting [4]), > 100 µg/mL.
`CCCCC[C@H](CC(=O)NCc1ccc(OC)cc1OC)C(=O)N[C@@H](Cc1ccccc1)C(=O)N1CCC[C@H]1CO` [Compound 59]: the figures for the IC50 in experiment [1] (setting [3]) and in experiment [1] (setting [4]) were > 176 µM and > 100 µg/mL, respectively.
As for `CCCCC[C@H](CC(=O)N(CC)CC)C(=O)N[C@@H](Cc1ccccc1)C(=O)N1CCC[C@H]1CO` [Compound 57], the IC50 is > 211 µM in experiment [1] (setting [3]) and > 100 µg/mL in experiment [1] (setting [4]).
On to `CC(C)[C@H](NC(=O)[C@H](C)CC(=O)NO)C(=O)N1CCC[C@H]1CO` [Compound 48, N4-hydroxy-N1-(1-(2-hydroxymethyl-pyrrolidine-1-carbonyl)-2-methyl-propyl)-2-methyl-succinamide], for which the inhibiting cell growth entry with Daudi and HL60 cells is “effective”. The IC50 in experiment [2] (setting [5]) stood at 22.4 µM; in experiment [2] (setting [6]), 8 µg/mL; in experiment [1] (setting [3]), 29.5 µM; in experiment [1] (setting [4]), 10.5 µg/mL.
Take `CCCCC[C@H](CC(=O)NCc1ccc([N+](=O)[O-])cc1)C(=O)N[C@@H](Cc1ccccc1)C(=O)N1CCC[C@H]1CO` [Compound 61]: the IC50 in experiment [1] (setting [3]) was > 181 µM; in experiment [1] (setting [4]), > 100 µg/mL.
Turning to `CCCCC[C@H](CC(=O)NO)C(=O)N[C@H](C(=O)N1CCC[C@H]1C(=O)O)C(C)C` [Compound 56, N4-hydroxy-N1-(1-(2-carboxy-pyrrolidine-1-carbonyl)-2-methyl-propyl)-2-pentyl-succinamide], the inhibiting cell growth result in the experiment with Daudi and HL60 cells is “effective”. Also, the IC50 in experiment [2] (setting [5]) is > 251 µM; in experiment [2] (setting [6]), > 100 µg/mL; in experiment [1] (setting [3]), > 251 µM; in experiment [1] (setting [4]), > 100 µg/mL.
On to `CCCCC[C@H](CC(=O)NO)C(=O)N[C@@H](CC(C)C)C(=O)N1CCC[C@H]1CO` [Compound 35, N4-hydroxy-N1-(1-(2-hydroxymethyl-pyrrolidine-1-carbonyl)-3-methyl-butyl)-2-pentyl-succinamide], for which the inhibiting cell growth entry in the experiment on Daudi and HL60 cells is listed as “effective”. The IC50 in experiment [2] (setting [5]) was determined as 14.1 µM; in experiment [2] (setting [6]), 5.7 µg/mL; in experiment [1] (setting [3]), 17.7 µM; in experiment [1] (setting [4]), 7.1 µg/mL.
Take `CCCCC[C@H](CC(=O)NOC)C(=O)N[C@@H](Cc1ccccc1)C(=O)N1CCC[C@H]1CO` [Compound 63]: the IC50 was > 224 µM in experiment [1] (setting [3]) and > 100 µg/mL in experiment [1] (setting [4]).
On to `CCCCC[C@H](CC(N)=O)C(=O)N[C@H](C(=O)N1CCC[C@H]1C)C(C)C` (stereo in doubt) [Compound 51, N1-(1-(2-methyl-pyrrolidine-1-carbonyl)-2-methyl-propyl)-2-pentyl-succinamide], for which the IC50 in experiment [2] (setting [5]) is 18.7 µM; in experiment [2] (setting [6]), 6.6 µg/mL; in experiment [1] (setting [3]), 19.5 µM; in experiment [1] (setting [4]) it was 6.9 µg/mL.
`O=C(O)CNC(=O)C(CS)Cc1ccccc1` (racemic) [DL-Thiorphan, reference compound]: the “Daudi IC50 (ug/mL), 5 day thymidine incorporation” value in experiment [2] is >100 µg/mL. Besides, the IC50 in experiment [2] (read-out: Daudi IC50 (uM), 5 day thymidine incorporation) was > 395 µM; in experiment [1] (read-out: HL60 IC50 (uM), 5 day thymidine incorporation) it was > 395 µM. Besides, the “HL60 IC50 (ug/mL), 5 day thymidine incorporation” value in experiment [1] was >100 µg/mL.
For the compound `CCCCC[C@H](CC(=O)NO)C(=O)N[C@H](C(=O)N1CCC[C@H]1CN)C(C)C` [Compound 53, N4-hydroxy-N1-(1-(2-methylamine-pyrrolidine-1-carbonyl)-2-methyl-propyl)-2-pentyl-succinamide], the inhibiting cell growth result with Daudi and HL60 cells is “effective”. Besides, the IC50 in experiment [2] (setting [5]) was 18.2 µM; in experiment [2] (setting [6]) it was 7 µg/mL; in experiment [1] (setting [3]), 26 µM; in experiment [1] (setting [4]), 10 µg/mL.
Take `CCCCC[C@H](CC(=O)O)C(=O)N[C@@H](Cc1ccccc1)C(=O)N1CCC[C@H]1CO` [Compound 54, 3-[1-(2-hydroxymethyl-pyrrolidin-1-yl)-2-benzylcarbamoyl]-octanoic acid]: the figures for the IC50 in experiment [1] (setting [3]) and in experiment [1] (setting [4]) were > 239 µM and > 100 µg/mL, respectively.
As to `CCCCC[C@H](CC(=O)NO)C(=O)N[C@H](C(=O)N1CCC[C@H]1C(=O)OC)C(C)C` [Compound 55], the IC50 came out at 0.97 µM in experiment [2] (setting [5]), 0.402 µg/mL in experiment [2] (setting [6]), 6.7 µM in experiment [1] (setting [3]) and 2.77 µg/mL in experiment [1] (setting [4]).
On to `CCCCC[C@H](CC(=O)N1CCCCC1)C(=O)N[C@@H](Cc1ccccc1)C(=O)N1CCC[C@H]1CO` [Compound 64], for which the values for the IC50 in experiment [1] (setting [3]) and in experiment [1] (setting [4]) were > 206 µM and > 100 µg/mL, respectively.
As for `CCCCC[C@H](CC(=O)NO)C(=O)N[C@@H](Cc1ccccc1)C(=O)N1CCC[C@H]1CO` [Compound 42, N1-(1-benzyl-2-(2-hydroxymethyl-pyrrolidin-1-yl)-2-oxo-ethyl)-N4-hydroxy-2-pentyl-succinamide], in the experiment with Daudi and HL60 cells, the inhibiting cell growth result is “effective”. The IC50 turned out to be 12.9 µM in experiment [2] (setting [5]), 5.8 µg/mL in experiment [2] (setting [6]), 15.8 µM in experiment [1] (setting [3]) and 7.1 µg/mL in experiment [1] (setting [4]).
As to `CCCCC[C@H](CC(=O)NCC)C(=O)N[C@@H](Cc1ccccc1)C(=O)N1CCC[C@H]1CO` [Compound 58], the IC50 in experiment [1] (setting [3]) was > 225 µM; in experiment [1] (setting [4]), > 100 µg/mL.
In the case of `CCCCC[C@H](CC(=O)NN(C)C)C(=O)N[C@@H](Cc1ccccc1)C(=O)N1CCC[C@H]1CO` [Compound 60, 2-(N′,N′-dimethyl-hydrazinocarbonylmethyl)-heptanoic acid [1-benzyl-2-(2-hydroxymethyl-pyrrolidin-1-yl)-2-oxo-ethyl]-amide], the IC50 in experiment [1] (setting [3]) is 196 µM; in experiment [1] (setting [4]), 90 µg/mL.
Consider `CCCCC[C@H](CC(=O)NO)C(=O)N[C@@H](Cc1ccccc1)C(=O)N1CCC[C@H]1C` [Compound 52], for which, in the experiment with Daudi and HL60 cells, the inhibiting cell growth entry is recorded as “effective”. Moreover, the IC50 came to 2.7 µM in experiment [2] (setting [5]), 1.2 µg/mL in experiment [2] (setting [6]), 12.1 µM in experiment [1] (setting [3]) and 5.2 µg/mL in experiment [1] (setting [4]).
With `CCCC[C@@H](C=O)NC(=O)[C@H](CC(C)C)NC(=O)OCc1ccccc1` [Calpeptin, reference compound], the IC50 was determined as 16.6 µM in experiment [2] (setting [5]), 6 µg/mL in experiment [2] (setting [6]), 138 µM in experiment [1] (setting [3]) and 50 µg/mL in experiment [1] (setting [4]).
In the case of `CCCCC[C@H](CC(N)=O)C(=O)N[C@@H](CC(C)C)C(=O)N1CCC[C@H]1CO` [Compound 49, N1-(1-(2-hydroxymethyl-pyrrolidine-1-carbonyl)-3-methyl-butyl)-2-pentyl-succinamide], the IC50 in experiment [2] (setting [5]) was > 130 µM; in experiment [2] (setting [6]), > 50 µg/mL; in experiment [1] (setting [3]) it was > 130 µM; in experiment [1] (setting [4]), > 50 µg/mL.
